One compound from patent US6740637B1, “Chlorophyll and bacteriochlorophyll derivatives, their preparation and pharmaceutical compositions comprising them” (priority 1998, dated 2004) can be followed below.

The subject of data set [1] is C57Bl mice. In words: Toxicity of serine conjugates in mice in the absence of irradiation. It is filed as in vivo, mouse. Conditions: injections of up to 40 mg/kg body weight, up to 14 days, no irradiation. As for the experimental part: (d) Toxicity of the Chl and Bchl-serine conjugates Chla-L-Ser-OMe and Bchla-L-Ser-OMe in C57Bl mice under normal housing conditions in the absence of irradiation was estimated by injection of the compound dissolved in 10% ethanol/PBS. Control mice were injected with the vehicle only. […] This dose of drug was thus far the highest used and LD50 vs. EC50 of treatment (margins of therapeutic index) have yet to be determined.

In data set [2] the test system is E.Coli. In words: PDT of bacteria with Chl-Ser, colony counting. It is filed as cell-based, Escherichia Coli. As for the experimental part: (§1) 1. Preincubation: Bacteria or viruses were preincubated in the absence (untreated control) or presence of increasing concentration of photosensitizer for 1-2 h at room temperature or 37° C. in the dark.
(§2) 2. Illumination: One set of untreated control and one set of sensitizer treated samples were exposed to light for 5-10 min. An identical group was kept in the dark (dark control).
(§3) 3. Viability: samples of the controls and experimental groups were subjected for quantitation of survival and viability was calculated as per cent of untreated control.
(§4) The light source for illumination was a 250W halogen lamp. The light was focused on a glass support and filtered to eliminate light below 630 nm. The light intensity at the target level was 1500 μEinstein/cm^2. Illumination for Bchl-Ser against S. aureus was performed as described Example 17 herein.
(§5) Stocks of bacteria (S. aureus, B. subtilis, E. coli) were preserved on solid LB agar slants at 4° C. Two hours prior to the experiment, bacteria were transferred to liquid LB media and grown at 37° C. with continuous shaking. P. Acnes (ATCC-CR 6919) bacteria were grown on agar 1053 reinforced clostridial medium (Oxoid CM 149 ) and incubated at 37° C. […]
(§6) Aliquots (20 or 30 μl) of bacterial suspensions were plated on LB agar plates for 24 h at 37° C. […] Colonies were counted and per cent viability was calculated from untreated control. […]

In data set [3] the test system is M2R cells. It is filed as cell-based, mouse. Here is the method:
Alternatively, photodynamic toxicity was determined by [^3H] thymidine incorporation. In this case, changes in rates of [^3H] thymidine incorporation following PDT were performed as follows: Cell cultures (4-5×10^4 cells/well in about 40-50% confluency grown in 10% fetal bovine serum) were pulsed with 1μ Ci/ml thymidine [methyl-^3H] for 2 h at 37° C. Cultures were then washed twice with cold phosphate-buffered saline (PBS), treated with 7.5% ice cold trichloroacetic acid (TCA) for 30 min at 4° C., washed 2 times with ethanol. Cells were then dissolved in 0.3 ml of 1 M NaOH at 37° C. for 15 min. Samples of 100 μl were neutralized with 100 μl of 1N HCI and 4 ml of 0.1 M imidazole and counted in a 20:8 (vol/vol) xylene scintillator/Lumax mixture. […] Results are given as means±SD of triplicate determinations.

Data set [4] deals with S. Aureus. It is filed as cell-based, Staphylococcus Aureus. As for the experimental part: as §1, §2, §3, §4, §5, §6
Data set [5] deals with M2R melanoma cells. In words: PDT effect by clonogenic assay. It is filed as cell-based, mouse. Here is the method:
The PDT effect was also determined by the clonogenic assay: 24 h after treatment of cells with various Chla-L-Ser-OMe concentrations and completion of the irradiation step, as described above (FIG. 12A), cultures were trypsinized and viable cell numbers determined by trypan blue exclusion. Appropriate dilutions were carried out and 250 cells/well were seeded into 6-well Costar plates. After 11-12 days in culture, the medium was aspirated and the colonies were fixed and stained with crystal violet in methanol and the number of colonies (more than 40 cells per colony) was counted under a dissecting microscope. […] Results are given as means±SD of triplicate determinations.

In data set [6] the test system is Herpes simplex virus-1 (in infected Vero cells). In words: PDT of HSV-1 in infected Vero cells, plaque assay. It is filed as cell-based, Herpes simplex virus type 1. Here is the method: Vero cells (Kidney African Green Monkey cells) were grown in DMEM+F12 medium buffered with 25 mM HEPES supplemented with 10% foetal bovine serum (FBS).Herpes simplex virus type 1 (HSV-1) was isolated from the eye of a patient with dentritic keratitis and maintained in culture.
(§7) For viral infection Vero cells (2×10^4/well) were cultured at 37° C. for 2 days in 24 well microplates. The culture medium was replaced with fresh medium containing 2% FBS and the cells infected with HSV-1 (200 μl) at multiplicity of infection (MOI) of 1-3. The cells were further incubated at 37° C. for 3 days. The medium was collected and centrifuged for 5 min in a clinical centrifuge to remove cells and cell debris. The concentration of viral particle was determined as described below and the suspension was aliquoted and kept at −80° C. until used.
(§8) Vero cells were inoculated with 10 fold dilutions of HSV-1 and cultured for 2 h at 37° C. The medium was then replaced with fresh DMEM containing 2% FBS and 0.7% methylcellulose and the cells were further incubated for 3 days. The overlayer was then decanted and the cells fixed and stained with crystal violet. Virus induced plaques were manually counted and plaque forming units (PFU/ml) were calculated.
Vero cells were infected with HSV-1 and incubated for four hours. Cells were then further incubated in dark for 1 h without or with Chl-Ser at the indicated concentrations. Cells were then washed three times with medium and immediately illuminated for 10 min. Subsequently the cells were incubated for 3 days for viral multiplication and media collected for quantitation. The appropriate controls described above were included in each experiment.

For data set [7], the system named is B. Subtilis. It is filed as cell-based, Bacilus Subtilis. Here is the method: as §1, §2, §3, §4, §5, §6
The test system of data set [8] is Herpes simplex virus-1 (HSV-1) (in free suspension). As to the kind of experiment: PDT of HSV-1 in suspension, plaque assay. It is filed as cell-based, Herpes simplex virus type 1. As for the experimental part: as §7, §8
HSV-1 suspended in culture medium to a concentration of 2×10^6 PFU/ml was dispensed (0.5 ml/well) into 24 well microplates and incubated in the dark for 1 h at 37° C. in the absence or presence of the indicated Chl-Ser concentrations. The experimental groups were then exposed to light for 10 min. The appropriate controls described above were included in each experiment. Viral survival was quantitated as described above.

On to `C=Cc1c(C)c2cc3nc(c4c5[n-]c(cc6nc(cc1[n-]2)C(C)=C6CC)c(C)c5C(=O)[C@@H]4C(=O)OC)[C@@H](CCC(=O)OC[C@H](N)C(=O)OC)[C@@H]3C.[Mg+2]` [Chla-L-Ser-OMe, L-seryl Methyl Ester Chlorophyllidea], for which the “effect on behavior and well being of mice” value in data set [1] is “no noticeable effect on the behavior and well being of the mice”. Further, the “concentration up to which phototoxicity could be detected, beyond which toxic in the dark” value in data set [2] was approximately 5 µM. The “sensitivity to Chl-Ser and light” value in data set [2] is recorded as “significant resistance”. For the same compound, the “[3H] thymidine incorporation without irradiation” value in data set [3] was “not observed in the dark controls”. The “[3H] thymidine incorporation after PDT” value in data set [3] (60 min with increasing concentrations, light source B, 24 h later) was “dose dependent reduction in the ability of the cells to incorporate [^3H] thymidine”. For the same compound, the effect in dark entry in data set [4] and in data set [7] was “neither light alone nor Chl-Ser in dark showed any effect” in each case. The “number of surviving cells (colonies) without irradiation” value in data set [5] (dark) is reported as “not in the dark”. The “number of surviving cells (colonies) after PDT” value in data set [5] (irradiated, colonies counted after 11-12 days) is “reduced the number of surviving cells in a dose dependent manner”. In addition, the “concentration of maximal toxicity” value in data set [6] was approximately 500 nM; in data set [8] it was more than 20 nM. Moreover, the EC50 in data set [6] (1 h with Chl-Ser, illuminated 10 min, read-out: half maximal effect on viral survival) was approximately 150 nM; in data set [8] (1 h with Chl-Ser, light 10 min, read-out: half maximal dose of sensitizer) it was approximately 10 nM. In data set [6] (same concentrations range, dark), the “effect in the dark” value is given as “no effect in the dark”. Moreover, in data set [8] (tested concentration range, dark), the “toxicity in the dark” value is listed as “not toxic in the dark”.
